Among the data in ChEMBL document CHEMBL1125762, “Synthesis and pharmacological evaluation of 1-(aminomethyl)-3,4-dihydro-5-hydroxy-1H-2-benzopyrans as dopamine D1 selective ligands” (J Med Chem, 1991) are Ki and Activity values, retold here.

As usually defined, the Ki is the dissociation constant of the complex between target and ligand, obtained from inhibition or displacement.

One assay has as its target D(2) dopamine receptor (Rattus norvegicus, UniProt P61169). Briefly: Binding affinity for dopamine receptor D2.
Another assay addresses D(1A) dopamine receptor (Rattus norvegicus, UniProt P18901). Briefly: Binding affinity for dopamine receptor D1.
The target in another assay is D(1) dopamine receptor (Carassius auratus, UniProt P35406). The assay is described as follows: In vitro inhibition of dopamine stimulated adenylate cyclase.
Chain of D(1) dopamine receptor (P35406 whole entry): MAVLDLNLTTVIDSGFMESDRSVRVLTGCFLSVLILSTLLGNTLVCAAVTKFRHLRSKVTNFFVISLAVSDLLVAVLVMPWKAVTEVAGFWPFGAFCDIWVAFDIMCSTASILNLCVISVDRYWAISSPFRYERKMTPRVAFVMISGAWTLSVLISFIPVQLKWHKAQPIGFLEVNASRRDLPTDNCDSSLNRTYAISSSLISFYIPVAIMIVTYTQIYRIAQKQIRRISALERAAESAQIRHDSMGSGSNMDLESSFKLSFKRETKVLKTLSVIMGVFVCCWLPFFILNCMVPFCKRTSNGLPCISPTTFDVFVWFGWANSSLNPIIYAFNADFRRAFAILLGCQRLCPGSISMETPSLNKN
Assay [1] deals with Rattus norvegicus. Briefly: Compound was tested for the net contralateral rotations in rats 2 hr after administration of 0.1 umol/kg, predosed with SCH-23390 (0.1 umol/kg sc), 40 min prior to injection of test compound; Activity expressed as net contralateral rotations / 2 hr.
The target in assay [2] is T1, Adrenergic receptor alpha-1 (Homo sapiens, UniProt P35348+P25100+P35368).
T1 sequence (P35348 whole entry): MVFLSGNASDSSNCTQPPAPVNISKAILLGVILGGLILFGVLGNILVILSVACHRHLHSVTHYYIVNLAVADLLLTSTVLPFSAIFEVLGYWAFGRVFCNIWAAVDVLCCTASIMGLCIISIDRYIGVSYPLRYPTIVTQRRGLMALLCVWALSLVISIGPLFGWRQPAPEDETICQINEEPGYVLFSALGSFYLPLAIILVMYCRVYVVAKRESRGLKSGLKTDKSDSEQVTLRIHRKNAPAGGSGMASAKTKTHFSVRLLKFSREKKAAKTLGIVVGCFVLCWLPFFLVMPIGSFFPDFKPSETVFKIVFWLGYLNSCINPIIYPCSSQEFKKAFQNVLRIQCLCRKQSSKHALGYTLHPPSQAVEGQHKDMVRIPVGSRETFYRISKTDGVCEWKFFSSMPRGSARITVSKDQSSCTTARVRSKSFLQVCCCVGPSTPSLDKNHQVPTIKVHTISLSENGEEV
T1 sequence (P25100 whole entry): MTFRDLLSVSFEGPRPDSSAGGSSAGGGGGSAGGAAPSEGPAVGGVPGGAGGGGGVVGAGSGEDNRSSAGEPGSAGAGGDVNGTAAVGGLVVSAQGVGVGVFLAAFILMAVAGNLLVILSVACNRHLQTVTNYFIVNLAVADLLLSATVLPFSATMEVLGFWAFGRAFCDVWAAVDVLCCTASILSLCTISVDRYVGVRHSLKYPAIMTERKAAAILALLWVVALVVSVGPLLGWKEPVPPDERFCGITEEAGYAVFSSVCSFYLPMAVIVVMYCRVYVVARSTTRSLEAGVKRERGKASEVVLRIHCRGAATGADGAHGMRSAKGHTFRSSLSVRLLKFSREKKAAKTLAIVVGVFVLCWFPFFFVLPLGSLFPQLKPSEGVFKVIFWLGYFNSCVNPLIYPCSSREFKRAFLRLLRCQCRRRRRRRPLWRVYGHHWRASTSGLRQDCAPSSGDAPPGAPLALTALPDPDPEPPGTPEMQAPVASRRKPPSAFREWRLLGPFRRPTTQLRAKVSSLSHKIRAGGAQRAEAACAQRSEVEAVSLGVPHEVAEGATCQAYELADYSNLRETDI
T1 sequence (P35368 whole entry): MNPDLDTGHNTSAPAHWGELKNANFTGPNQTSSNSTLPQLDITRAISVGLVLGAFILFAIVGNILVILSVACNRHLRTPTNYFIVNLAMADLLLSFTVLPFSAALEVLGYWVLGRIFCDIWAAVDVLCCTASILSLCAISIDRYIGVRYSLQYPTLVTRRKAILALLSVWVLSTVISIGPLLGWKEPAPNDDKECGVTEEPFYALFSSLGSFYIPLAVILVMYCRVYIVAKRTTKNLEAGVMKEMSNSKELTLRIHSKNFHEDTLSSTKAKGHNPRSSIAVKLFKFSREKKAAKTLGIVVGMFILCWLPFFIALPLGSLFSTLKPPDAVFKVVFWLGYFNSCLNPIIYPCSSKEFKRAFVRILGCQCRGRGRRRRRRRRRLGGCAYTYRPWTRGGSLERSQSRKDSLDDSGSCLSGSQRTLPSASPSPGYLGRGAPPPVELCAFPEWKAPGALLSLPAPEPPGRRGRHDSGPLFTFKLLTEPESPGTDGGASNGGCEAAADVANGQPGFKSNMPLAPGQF
The assay is described as follows: Compound was tested in vitro for binding affinity for alpha-1 adrenergic receptor. Format: protein assay.

Assay [3] deals with Sodium-dependent dopamine transporter (Homo sapiens, UniProt Q01959). The assay is described as follows: In vitro binding affinity for dopamine uptake site.
Chain of Sodium-dependent dopamine transporter (Q01959 whole entry): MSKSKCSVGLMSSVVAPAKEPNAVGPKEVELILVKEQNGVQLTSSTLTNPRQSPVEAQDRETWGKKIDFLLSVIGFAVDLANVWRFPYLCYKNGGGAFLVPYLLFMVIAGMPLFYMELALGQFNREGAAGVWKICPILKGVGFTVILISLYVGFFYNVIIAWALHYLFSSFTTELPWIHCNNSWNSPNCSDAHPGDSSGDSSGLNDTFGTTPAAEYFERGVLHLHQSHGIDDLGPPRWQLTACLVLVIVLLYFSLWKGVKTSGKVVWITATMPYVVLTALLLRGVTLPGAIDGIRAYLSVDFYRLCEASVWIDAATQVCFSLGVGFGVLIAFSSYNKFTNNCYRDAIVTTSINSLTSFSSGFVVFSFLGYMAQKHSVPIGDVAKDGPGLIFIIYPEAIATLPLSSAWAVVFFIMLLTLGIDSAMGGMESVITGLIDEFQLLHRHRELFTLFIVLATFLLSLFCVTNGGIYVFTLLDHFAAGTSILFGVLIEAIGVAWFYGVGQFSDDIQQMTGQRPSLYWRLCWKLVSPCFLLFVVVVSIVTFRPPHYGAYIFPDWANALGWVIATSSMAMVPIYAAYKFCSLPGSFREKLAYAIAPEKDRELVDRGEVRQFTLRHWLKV
The target in assay [4] is Beta-2 adrenergic receptor (Canis lupus familiaris, UniProt P54833). Briefly: Compound was tested in vitro for binding affinity for beta receptor.
Chain of Beta-2 adrenergic receptor (P54833 whole entry): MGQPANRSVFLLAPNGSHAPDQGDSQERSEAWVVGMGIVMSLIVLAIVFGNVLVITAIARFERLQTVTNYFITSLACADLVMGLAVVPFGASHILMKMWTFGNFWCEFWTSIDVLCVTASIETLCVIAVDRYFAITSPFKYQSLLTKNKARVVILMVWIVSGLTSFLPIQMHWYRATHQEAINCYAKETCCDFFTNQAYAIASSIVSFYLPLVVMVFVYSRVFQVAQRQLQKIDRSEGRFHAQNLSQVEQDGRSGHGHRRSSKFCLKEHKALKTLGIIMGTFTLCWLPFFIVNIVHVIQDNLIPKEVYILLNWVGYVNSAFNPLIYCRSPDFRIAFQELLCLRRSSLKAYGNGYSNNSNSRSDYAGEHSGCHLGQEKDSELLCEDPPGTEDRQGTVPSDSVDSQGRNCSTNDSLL
The target of assay [5] is T2, 5-hydroxytryptamine receptor 1A (Rattus norvegicus, UniProt P19327).
T2 sequence (P19327 whole entry): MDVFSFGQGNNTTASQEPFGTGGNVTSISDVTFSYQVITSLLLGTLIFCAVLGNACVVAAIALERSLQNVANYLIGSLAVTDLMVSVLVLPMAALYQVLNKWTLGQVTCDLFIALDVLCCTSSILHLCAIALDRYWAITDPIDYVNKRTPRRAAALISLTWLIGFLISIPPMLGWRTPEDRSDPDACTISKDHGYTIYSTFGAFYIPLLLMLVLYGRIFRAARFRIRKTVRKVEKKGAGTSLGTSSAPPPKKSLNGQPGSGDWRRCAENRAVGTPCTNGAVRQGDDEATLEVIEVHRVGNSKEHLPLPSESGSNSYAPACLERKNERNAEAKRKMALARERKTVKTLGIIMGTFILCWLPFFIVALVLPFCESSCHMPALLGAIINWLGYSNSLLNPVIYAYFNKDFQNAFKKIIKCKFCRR
The assay is described as follows: Compound was tested in vitro for binding affinity for 5-hydroxytryptamine 1A receptor.

Assay [6] relates to Rattus norvegicus. Briefly: Compound was tested for the net contralateral rotations in rats 2 hr after administration of 1 uM/kg dopamine agonist; Activity expressed as net contralateral rotations / 2 hr. Format: functional.
Assay [7] addresses Serotonin 2 (5-HT2) receptor (Rattus norvegicus, UniProt P30994+P08909+P14842). The assay is described as follows: Compound was tested in vitro for binding affinity for 5-hydroxytryptamine 2 receptor. Format: protein assay.
The target of assay [8] is T3, Adrenergic receptor alpha-2 (Homo sapiens, UniProt P08913+P18825+P18089).
T3 sequence (P08913 whole entry): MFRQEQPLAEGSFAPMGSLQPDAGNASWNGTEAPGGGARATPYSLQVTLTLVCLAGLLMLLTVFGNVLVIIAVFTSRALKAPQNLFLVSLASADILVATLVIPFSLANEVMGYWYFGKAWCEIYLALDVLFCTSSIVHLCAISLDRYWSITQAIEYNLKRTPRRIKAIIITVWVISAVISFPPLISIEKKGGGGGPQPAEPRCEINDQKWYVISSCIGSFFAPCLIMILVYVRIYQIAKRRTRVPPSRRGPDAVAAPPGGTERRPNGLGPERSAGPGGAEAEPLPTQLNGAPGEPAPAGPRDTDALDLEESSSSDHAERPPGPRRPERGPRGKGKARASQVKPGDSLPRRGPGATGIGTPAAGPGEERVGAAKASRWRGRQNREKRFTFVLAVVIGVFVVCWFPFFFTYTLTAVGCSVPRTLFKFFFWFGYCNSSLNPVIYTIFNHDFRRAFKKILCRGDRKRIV
T3 sequence (P18825 whole entry): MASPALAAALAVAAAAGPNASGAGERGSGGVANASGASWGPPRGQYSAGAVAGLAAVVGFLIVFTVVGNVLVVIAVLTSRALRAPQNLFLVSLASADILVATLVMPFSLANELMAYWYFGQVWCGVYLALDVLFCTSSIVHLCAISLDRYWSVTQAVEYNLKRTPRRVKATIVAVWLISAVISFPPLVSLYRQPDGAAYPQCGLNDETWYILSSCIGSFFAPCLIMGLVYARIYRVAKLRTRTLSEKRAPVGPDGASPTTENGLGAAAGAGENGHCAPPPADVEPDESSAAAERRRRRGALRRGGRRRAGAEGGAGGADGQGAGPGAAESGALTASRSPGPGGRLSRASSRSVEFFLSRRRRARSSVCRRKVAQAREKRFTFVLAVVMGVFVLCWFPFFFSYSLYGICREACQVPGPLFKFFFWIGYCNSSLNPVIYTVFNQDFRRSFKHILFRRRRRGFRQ
T3 sequence (P18089 whole entry): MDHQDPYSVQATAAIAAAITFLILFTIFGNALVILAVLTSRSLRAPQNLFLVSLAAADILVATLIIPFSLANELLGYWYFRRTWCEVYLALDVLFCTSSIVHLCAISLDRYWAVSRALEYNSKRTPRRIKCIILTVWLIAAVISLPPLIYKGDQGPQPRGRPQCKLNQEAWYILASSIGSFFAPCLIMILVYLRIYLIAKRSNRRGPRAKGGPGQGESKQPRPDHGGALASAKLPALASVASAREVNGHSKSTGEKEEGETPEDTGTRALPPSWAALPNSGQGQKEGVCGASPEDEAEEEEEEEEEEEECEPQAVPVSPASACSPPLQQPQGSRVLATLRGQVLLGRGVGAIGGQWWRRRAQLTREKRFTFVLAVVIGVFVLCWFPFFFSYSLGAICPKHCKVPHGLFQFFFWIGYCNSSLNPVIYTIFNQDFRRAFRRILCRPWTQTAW
The assay is described as follows: Compound was tested in vitro for binding affinity for alpha-2 adrenergic receptor. Format: protein assay.

The subject of assay [9] is Rattus norvegicus. The assay is described as follows: Compound was tested for the net contralateral rotations in rats 2 hr after administration of 0.1 uM/kg dopamine agonist; Activity expressed as net contralateral rotations / 2 hr. Format: functional.
The test system of assay [10] is Rattus norvegicus. Briefly: Compound was tested for the net contralateral rotations in rats 2 hr after sc administration of 1.7 umol/kg dopamine agonist; Activity expressed as net contralateral rotations / 2 hr. Format: functional.
In assay [11] the test system is Rattus norvegicus. Briefly: Compound was tested for the net contralateral rotations in rats 2 hr after administration of 1.7 umol/kg, predosed with SCH-23390 (0.05 umol/kg sc), 40 min prior to injection of test compound; Activity expressed as net contralateral rotations / 2ho. The assay is classed as functional.
Assay [12] concerns Rattus norvegicus. The assay is described as follows: Compound was tested for the net contralateral rotations in rats, 2 hr after sc administration of 0.43 umol/kg dopamine agonist; Activity expressed as net contralateral rotations / 2 hr. The assay is classed as functional.

Chain of D(1A) dopamine receptor (P18901 whole entry): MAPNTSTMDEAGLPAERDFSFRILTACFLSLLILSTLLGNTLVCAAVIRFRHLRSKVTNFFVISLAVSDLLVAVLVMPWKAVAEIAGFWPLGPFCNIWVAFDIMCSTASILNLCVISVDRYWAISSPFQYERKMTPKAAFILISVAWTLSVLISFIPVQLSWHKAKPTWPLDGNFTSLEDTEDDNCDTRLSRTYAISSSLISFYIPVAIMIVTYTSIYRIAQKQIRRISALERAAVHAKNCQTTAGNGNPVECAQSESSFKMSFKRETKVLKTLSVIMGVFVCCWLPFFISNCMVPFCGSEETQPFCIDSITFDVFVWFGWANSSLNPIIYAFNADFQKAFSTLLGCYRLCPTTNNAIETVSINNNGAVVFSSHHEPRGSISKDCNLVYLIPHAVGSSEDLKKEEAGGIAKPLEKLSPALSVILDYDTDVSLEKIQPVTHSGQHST
Chain of D(2) dopamine receptor (P61169 whole entry): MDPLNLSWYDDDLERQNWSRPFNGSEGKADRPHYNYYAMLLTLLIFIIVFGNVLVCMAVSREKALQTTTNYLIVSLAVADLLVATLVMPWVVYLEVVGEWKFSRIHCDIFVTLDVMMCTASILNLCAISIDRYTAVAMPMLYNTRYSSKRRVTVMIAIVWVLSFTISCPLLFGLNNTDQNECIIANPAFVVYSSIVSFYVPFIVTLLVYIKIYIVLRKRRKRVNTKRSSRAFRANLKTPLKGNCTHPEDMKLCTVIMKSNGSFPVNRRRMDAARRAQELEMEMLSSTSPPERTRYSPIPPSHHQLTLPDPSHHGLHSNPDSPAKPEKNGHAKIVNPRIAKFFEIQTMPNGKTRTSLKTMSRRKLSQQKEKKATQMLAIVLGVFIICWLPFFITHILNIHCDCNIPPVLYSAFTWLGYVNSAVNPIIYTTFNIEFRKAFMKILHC

As to `NC[C@@H]1O[C@H](C2CCCCC2)Cc2c1ccc(O)c2O`, the Ki at D(2) dopamine receptor came out at 1120 nM; at D(1A) dopamine receptor, 5.4 nM.
Regarding `NC[C@H]1O[C@H](c2ccccc2)Cc2c1ccc(Br)c2O`, the Ki on D(2) dopamine receptor amounted to 1960 nM; at D(1A) dopamine receptor, 366 nM; at D(1) dopamine receptor, 197 nM.
Turning to `NC[C@@H]1O[C@H](c2ccccc2)Cc2c(O)cccc21`, the Ki was greater than 30000 nM on D(2) dopamine receptor, 103 nM on D(1A) dopamine receptor and 52.5 nM at D(1) dopamine receptor.
For the compound `Br.Cc1ccc2c(c1O)C[C@@H](C1CCCCC1)O[C@H]2CN`, the Activity in the assay on Rattus norvegicus [1] is 4; with Rattus norvegicus [6], 751; with Rattus norvegicus [9], 227. The Ki at D(2) dopamine receptor was greater than 30000 nM; in [2], greater than 30 µM; in assay [3], 1870 nM; at D(1A) dopamine receptor it was 86.4 nM; on D(1) dopamine receptor, 100 nM; in [4], 19.2 µM. Besides, the Ki in [5] turned out to be 54.1 nM; in assay [7], 0.242 µM; in assay [8], 358 nM.
In the case of `CCCNC[C@@H]1O[C@H](C2CCCCC2)Cc2c1ccc(C)c2O`, the results for the Ki on D(2) dopamine receptor, at D(1A) dopamine receptor and on D(1) dopamine receptor were 2630 nM, 2820 nM and 454 nM, respectively.
Take `Cl.NC[C@@H]1O[C@H](c2ccccc2)Cc2c1ccc(Br)c2O`: the Activity was 151 in the assay with Rattus norvegicus [1], 748 in the assay on Rattus norvegicus [6] and 1007 in the assay with Rattus norvegicus [9]. Moreover, the Ki on D(2) dopamine receptor is 569 nM; in [2], 1.82 µM; in assay [3] it was greater than 30000 nM; on D(1A) dopamine receptor it was 5.1 nM; at D(1) dopamine receptor, 32.4 nM; in [4] it was 18.4 µM. In addition, the results for the Ki in assay [5], in assay [7] and in [8] were 312 nM, 6.36 µM and 360 nM, respectively.
Consider `CNC[C@@H]1O[C@H](C2CCCCC2)Cc2c1ccc(C)c2O`, for which the Ki on D(2) dopamine receptor is 4610 nM; at D(1A) dopamine receptor, 263 nM; on D(1) dopamine receptor, 121 nM.
For `Cc1ccc2c(c1O)C[C@@H](C1CCCCC1)O[C@H]2CN(C)C`, in that order: 18000 nM, 284 nM and 125 nM.
The like results for `COc1ccc2c(c1O)C[C@@H](c1ccccc1)O[C@H]2CN` were, in that order, greater than 30000 nM, 166 nM and 247 nM.
For the compound `Oc1cc2c(cc1O)[C@@H](c1ccccc1)CNCC2` [(R)-SKF-38393], the Activity in the assay with Rattus norvegicus [10] amounted to 608; with Rattus norvegicus [11] it was 47; with Rattus norvegicus [12] it was 241.
